Measured values: PMC12073402, “A Selective MAP3K1 Inhibitor Facilitates Discovery of NPM1 as a Member of the Network” (Molecules, 2025)

Experiments:
Assay in all cases: KiNativ kinome profiling in PANC-1 lysate
Format in all cases: binding
AurB = molecular target: T1, AurB (Homo sapiens, UniProt Q96GD4); settings: Lys1
T1 construct: endogenous in cells; host or cells: PANC-1 cell lysate
Method in brief: (§1)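 PANC-1 lysates were incubated with 5 μM inhibitor or DMSO, then labeled with a desthiobiotin-ATP acyl-phosphate probe that biotinylates conserved kinase lysines. Tryptic peptides were streptavidin-enriched and quantified by LC-MS/MS, reported as % change in MS signal from duplicate treated and duplicate control samples.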

CDK11 = molecular target: T2, CDK11 (Homo sapiens, UniProt Q9BWU1); settings: Lys1
T2 construct: endogenous in cells; host or cells: PANC-1 cell lysate
T2 sequence (Q9BWU1 whole entry): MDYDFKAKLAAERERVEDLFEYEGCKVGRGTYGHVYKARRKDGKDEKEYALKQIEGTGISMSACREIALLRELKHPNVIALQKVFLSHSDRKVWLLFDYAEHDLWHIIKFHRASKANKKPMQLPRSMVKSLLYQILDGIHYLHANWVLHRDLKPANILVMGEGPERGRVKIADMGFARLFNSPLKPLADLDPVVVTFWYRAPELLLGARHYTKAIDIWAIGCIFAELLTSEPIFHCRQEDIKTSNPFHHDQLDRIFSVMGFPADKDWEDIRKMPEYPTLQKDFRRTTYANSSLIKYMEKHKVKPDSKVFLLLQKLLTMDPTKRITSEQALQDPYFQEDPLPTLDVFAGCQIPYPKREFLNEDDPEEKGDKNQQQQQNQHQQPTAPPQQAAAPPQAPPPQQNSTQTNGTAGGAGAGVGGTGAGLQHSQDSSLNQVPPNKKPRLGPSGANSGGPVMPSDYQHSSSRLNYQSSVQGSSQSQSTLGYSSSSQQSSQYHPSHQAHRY
Method in brief: as §1

CHK1 = molecular target: T3, CHK1 (Homo sapiens, UniProt O14757); settings: Lys2
T3 construct: endogenous in cells; host or cells: PANC-1 cell lysate
Method in brief: as §1

CaMK1d = molecular target: T4, CaMK1d (Homo sapiens, UniProt Q8IU85)
T4 construct: endogenous in cells; host or cells: PANC-1 cell lysate
T4 sequence (Q8IU85 whole entry): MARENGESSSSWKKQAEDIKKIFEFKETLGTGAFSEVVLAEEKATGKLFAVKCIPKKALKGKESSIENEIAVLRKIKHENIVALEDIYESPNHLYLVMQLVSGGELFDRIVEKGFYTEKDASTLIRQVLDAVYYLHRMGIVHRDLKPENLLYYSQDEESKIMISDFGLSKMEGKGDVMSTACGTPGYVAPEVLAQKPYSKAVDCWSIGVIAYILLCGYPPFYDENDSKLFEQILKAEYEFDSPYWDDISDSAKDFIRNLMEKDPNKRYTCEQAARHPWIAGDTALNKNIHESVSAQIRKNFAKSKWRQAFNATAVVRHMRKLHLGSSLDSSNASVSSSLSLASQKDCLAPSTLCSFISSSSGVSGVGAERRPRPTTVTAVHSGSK
Method in brief: as §1

DRAK1 = molecular target: T5, DRAK1 (Homo sapiens, UniProt Q9UEE5); settings: Lys2
T5 construct: endogenous in cells; host or cells: PANC-1 lysate
Method in brief: as §1

IKKb = molecular target: T6, IKKb (Homo sapiens, UniProt O14920)
T6 construct: we opted to conduct a kinome screen (KiNativ) in PANC-1 cell lysates; endogenous in cells; host or cells: PANC-1 cell lysate
T6 sequence (O14920 1-756): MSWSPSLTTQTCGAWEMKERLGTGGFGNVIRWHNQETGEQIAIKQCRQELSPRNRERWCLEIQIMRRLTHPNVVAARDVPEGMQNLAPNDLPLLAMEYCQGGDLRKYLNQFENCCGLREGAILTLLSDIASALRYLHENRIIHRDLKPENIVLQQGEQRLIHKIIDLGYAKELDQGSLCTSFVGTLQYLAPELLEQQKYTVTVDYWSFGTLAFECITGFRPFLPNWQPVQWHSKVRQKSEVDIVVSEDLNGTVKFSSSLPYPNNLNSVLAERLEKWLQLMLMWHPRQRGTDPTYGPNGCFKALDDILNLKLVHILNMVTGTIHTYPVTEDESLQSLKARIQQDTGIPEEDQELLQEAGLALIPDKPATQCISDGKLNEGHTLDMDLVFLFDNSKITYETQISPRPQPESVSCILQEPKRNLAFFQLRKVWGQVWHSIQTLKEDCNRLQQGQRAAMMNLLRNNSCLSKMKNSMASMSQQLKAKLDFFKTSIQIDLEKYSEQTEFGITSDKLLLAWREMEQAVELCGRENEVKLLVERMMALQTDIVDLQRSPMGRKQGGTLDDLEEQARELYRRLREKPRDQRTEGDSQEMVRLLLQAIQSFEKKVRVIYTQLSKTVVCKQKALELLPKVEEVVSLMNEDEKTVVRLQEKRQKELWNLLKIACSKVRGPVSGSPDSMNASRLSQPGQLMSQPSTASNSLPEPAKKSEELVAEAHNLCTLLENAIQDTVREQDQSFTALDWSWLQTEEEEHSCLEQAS
Method in brief: as §1

IRAK1 = molecular target: T7, IRAK1 (Homo sapiens, UniProt P51617); settings: Lys2
T7 construct: we opted to conduct a kinome screen (KiNativ) in PANC-1 cell lysates; endogenous in cells; host or cells: PANC-1 cell lysate
Method in brief: as §1

LATS1 = molecular target: T8, LATS1 (Homo sapiens, UniProt O95835)
T8 construct: we opted to conduct a kinome screen (KiNativ) in PANC-1 cell lysates; endogenous in cells; host or cells: PANC-1 cell lysate
T8 sequence (O95835 whole entry): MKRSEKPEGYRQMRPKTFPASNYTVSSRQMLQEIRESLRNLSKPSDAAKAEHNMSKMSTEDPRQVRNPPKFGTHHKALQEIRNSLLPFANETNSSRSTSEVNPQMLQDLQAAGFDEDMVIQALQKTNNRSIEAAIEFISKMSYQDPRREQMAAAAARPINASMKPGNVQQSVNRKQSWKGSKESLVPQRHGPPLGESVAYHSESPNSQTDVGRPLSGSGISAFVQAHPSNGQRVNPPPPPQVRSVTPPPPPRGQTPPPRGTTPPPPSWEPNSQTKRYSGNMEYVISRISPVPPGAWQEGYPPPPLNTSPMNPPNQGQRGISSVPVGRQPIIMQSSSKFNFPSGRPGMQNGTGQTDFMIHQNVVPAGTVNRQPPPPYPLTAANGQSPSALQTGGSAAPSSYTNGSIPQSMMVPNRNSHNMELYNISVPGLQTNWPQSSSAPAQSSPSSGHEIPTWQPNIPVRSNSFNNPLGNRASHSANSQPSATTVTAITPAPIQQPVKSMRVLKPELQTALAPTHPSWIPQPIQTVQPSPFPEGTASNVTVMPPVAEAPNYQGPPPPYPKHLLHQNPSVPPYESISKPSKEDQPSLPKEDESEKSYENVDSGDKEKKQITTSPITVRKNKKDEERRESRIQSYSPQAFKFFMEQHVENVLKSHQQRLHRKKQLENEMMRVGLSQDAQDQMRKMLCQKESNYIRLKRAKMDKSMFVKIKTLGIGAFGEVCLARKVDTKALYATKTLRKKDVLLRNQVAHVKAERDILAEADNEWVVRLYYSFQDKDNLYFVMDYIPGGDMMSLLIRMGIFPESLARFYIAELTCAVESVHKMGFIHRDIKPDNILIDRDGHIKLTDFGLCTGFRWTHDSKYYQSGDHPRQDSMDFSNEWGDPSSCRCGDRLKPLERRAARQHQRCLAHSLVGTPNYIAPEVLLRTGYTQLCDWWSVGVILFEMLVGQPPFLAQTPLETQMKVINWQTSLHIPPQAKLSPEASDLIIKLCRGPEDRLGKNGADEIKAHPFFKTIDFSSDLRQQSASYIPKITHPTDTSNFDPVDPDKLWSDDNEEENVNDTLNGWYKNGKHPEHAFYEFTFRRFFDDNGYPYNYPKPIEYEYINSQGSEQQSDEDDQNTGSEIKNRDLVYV
Method in brief: as §1

MLK1 = molecular target: T9, MLK1 (Homo sapiens, UniProt P80192); settings: Lys2
T9 construct: endogenous in cells; host or cells: PANC-1
Method in brief: as §1

MLK3 = molecular target: T10, MLK3 (Homo sapiens, UniProt Q16584); settings: Lys2
T10 construct: endogenous in cells; host or cells: PANC-1
Method in brief: as §1

MSK2 domain1 = molecular target: T11, MSK2 domain1 (Homo sapiens, UniProt O75676)
T11 construct: endogenous in cells; host or cells: PANC-1
T11 sequence (O75676 whole entry, the tested form may be a part): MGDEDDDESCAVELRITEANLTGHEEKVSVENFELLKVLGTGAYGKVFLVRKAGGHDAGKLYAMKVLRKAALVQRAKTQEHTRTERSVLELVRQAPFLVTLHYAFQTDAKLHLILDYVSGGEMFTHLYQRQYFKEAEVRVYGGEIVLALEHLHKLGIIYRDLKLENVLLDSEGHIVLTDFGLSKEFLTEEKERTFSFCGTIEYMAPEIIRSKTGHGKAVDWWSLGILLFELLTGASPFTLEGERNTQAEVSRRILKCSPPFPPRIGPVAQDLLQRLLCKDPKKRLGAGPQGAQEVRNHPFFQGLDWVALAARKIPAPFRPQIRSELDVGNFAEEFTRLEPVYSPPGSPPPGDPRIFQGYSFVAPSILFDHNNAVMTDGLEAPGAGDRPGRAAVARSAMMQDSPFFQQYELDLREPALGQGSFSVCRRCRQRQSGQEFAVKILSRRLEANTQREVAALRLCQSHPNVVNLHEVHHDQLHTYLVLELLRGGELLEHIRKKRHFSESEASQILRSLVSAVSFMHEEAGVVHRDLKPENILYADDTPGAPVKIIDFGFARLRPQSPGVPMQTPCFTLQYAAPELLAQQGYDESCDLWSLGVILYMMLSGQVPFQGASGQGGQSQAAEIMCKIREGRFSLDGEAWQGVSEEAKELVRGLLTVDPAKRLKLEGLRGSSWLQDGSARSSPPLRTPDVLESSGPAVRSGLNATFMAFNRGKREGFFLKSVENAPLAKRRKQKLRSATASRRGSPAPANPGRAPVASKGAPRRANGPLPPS
Method in brief: as §1

PIK3CA = molecular target: T12, PIK3CA (Homo sapiens, UniProt P42336); settings: ATP
T12 construct: endogenous in cells; host or cells: PANC-1 cell lysate
T12 sequence (P42336 whole entry): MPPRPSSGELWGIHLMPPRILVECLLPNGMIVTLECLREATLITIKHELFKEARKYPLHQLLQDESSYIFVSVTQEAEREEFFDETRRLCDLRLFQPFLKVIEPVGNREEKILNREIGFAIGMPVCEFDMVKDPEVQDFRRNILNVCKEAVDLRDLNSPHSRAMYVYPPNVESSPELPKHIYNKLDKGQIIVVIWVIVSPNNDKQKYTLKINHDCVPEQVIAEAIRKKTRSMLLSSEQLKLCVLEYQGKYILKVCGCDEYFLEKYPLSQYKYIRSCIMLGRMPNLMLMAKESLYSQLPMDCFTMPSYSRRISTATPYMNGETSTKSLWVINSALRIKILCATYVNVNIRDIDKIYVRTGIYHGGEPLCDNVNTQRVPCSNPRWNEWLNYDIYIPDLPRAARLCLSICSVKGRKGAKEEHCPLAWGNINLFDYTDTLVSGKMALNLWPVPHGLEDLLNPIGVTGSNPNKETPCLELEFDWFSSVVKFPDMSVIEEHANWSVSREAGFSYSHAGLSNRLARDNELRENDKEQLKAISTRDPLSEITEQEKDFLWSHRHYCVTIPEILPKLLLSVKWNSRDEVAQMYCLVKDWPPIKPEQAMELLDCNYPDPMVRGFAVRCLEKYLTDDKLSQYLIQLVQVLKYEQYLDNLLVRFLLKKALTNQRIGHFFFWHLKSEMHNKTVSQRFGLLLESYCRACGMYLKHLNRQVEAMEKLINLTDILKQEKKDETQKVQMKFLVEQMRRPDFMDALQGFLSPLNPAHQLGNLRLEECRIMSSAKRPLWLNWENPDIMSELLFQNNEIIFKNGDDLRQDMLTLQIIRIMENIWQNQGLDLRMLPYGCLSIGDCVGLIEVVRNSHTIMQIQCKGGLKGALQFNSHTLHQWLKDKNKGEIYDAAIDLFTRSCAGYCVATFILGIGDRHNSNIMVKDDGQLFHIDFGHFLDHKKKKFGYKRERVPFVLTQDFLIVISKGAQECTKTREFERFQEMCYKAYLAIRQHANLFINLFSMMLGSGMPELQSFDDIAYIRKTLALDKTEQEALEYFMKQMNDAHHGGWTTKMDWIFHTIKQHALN
T12 sequence (P27986 whole entry partner): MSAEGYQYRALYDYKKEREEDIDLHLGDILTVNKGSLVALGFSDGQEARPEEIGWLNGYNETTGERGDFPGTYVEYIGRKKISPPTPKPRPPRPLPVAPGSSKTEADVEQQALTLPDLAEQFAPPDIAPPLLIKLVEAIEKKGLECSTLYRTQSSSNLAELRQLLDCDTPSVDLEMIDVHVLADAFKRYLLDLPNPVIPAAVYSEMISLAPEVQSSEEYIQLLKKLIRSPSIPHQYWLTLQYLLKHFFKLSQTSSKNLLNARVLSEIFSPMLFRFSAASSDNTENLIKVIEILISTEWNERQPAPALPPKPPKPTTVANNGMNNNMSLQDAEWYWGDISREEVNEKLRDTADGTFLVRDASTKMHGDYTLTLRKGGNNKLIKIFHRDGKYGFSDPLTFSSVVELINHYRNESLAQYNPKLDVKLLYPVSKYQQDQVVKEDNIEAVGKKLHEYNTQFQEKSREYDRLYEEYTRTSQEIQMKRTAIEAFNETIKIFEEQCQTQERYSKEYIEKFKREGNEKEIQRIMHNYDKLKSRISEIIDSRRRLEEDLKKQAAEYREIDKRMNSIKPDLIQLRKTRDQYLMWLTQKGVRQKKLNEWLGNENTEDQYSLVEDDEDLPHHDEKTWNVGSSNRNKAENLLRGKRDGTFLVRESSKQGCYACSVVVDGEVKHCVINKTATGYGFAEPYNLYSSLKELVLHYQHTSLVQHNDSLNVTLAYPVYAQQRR
Method in brief: as §1

PIP4K2A = molecular target: T13, PIP4K2A (Homo sapiens, UniProt P48426); settings: ATP
T13 construct: endogenous in cells; host or cells: PANC-1 cell lysate
T13 sequence (P48426 whole entry): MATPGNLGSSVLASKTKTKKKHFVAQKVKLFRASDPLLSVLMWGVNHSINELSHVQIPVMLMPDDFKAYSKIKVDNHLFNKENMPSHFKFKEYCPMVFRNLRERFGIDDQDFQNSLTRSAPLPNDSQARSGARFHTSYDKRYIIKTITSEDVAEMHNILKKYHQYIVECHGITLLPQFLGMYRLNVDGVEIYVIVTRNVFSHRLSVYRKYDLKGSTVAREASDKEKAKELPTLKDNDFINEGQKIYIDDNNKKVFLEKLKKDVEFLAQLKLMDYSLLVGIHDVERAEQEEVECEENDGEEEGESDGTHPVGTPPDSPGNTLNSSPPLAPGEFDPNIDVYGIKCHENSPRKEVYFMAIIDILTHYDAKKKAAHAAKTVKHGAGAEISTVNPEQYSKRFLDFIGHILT
Method in brief: as §1

PKD1, PKD2 = settings: 5 µM; Lys2; NIVHCDLKPENVLLASADPFPQVK
Method in brief: as §1

SMG1 = molecular target: T14, SMG1 (Homo sapiens, UniProt Q96Q15); settings: ATP
T14 construct: endogenous in cells; host or cells: PANC-1 cell lysate
Method in brief: as §1

TAO2 = molecular target: T15, TAO2 (Homo sapiens, UniProt Q9UL54); settings: Lys2
T15 construct: endogenous in cells; host or cells: PANC-1 cell lysate
Method in brief: as §1

Cn1cc(-c2cnc3ccc(NC(=O)Nc4ccc(F)c(C(F)(F)F)c4)cc3n2)cn1 [51-106, 1-(4-Fluoro-3-(trifluoromethyl)phenyl)-3-(3-(1-methyl-1H-pyrazol-4-yl)quinoxalin-6-yl)urea]
inhibition at 5 µM (AurB): ≤ 0% | inhibition at 5 µM (CDK11): 4% | inhibition at 5 µM (CHK1): ≤ 0% | inhibition at 5 µM (CaMK1d; Lys1, LFAVKCIPK): 30.3% | inhibition at 5 µM (CaMK1d; Lys2, DLKPENLLYYSQDEESK): ≤ 0% | inhibition at 5 µM (DRAK1): ≤ 0% | inhibition at 5 µM (IKKb; Lys1, WHNQETGEQIAIKQCR): 0.1% | inhibition at 5 µM (IKKb; Lys2, DLKPENIVLQQGEQR): ≤ 0% | inhibition of IKKβ (in words) (IKKb; 5 μM, PANC-1 lysate): not inhibited | inhibition at 5 µM (IRAK1): ≤ 0% | % Inhibition (LATS1; 5 µM, Lys2, DIKPDNILIDR): NB (NB = No Binding (≤ 0)) | inhibition at 5 µM (LATS1; Lys1, […]): ≤ 0% | inhibition at 5 µM (MLK1): 1.5% | inhibition at 5 µM (MLK3): 1.3% | inhibition at 5 µM (MSK2 domain1; Lys1, LYAMKVLR): 5.5% | inhibition at 5 µM (MSK2 domain1; Lys2, DLKLENVLLDSEGHIVLTDFGLSK): ≤ 0% | inhibition at 5 µM (PIK3CA): ≤ 0% | inhibition at 5 µM (PIP4K2A; AKELPTLKDNDFINEGQK): ≤ 0% | inhibition at 5 µM (PIP4K2A; YIIKTITSEDVAEMHNILK): 4.5% | % Inhibition (PKD1, PKD2): NB (NB = No Binding (≤ 0)) | % Inhibition (SMG1; 5 µM, DTVTIHSVGGTITILPTKTKPK): NB (NB = No Binding (≤ 0)) | inhibition at 5 µM (SMG1; […]): ≤ 0% | inhibition at 5 µM (TAO2): 5.5%
